From PubChem BioAssay (NCI) come the findings set out here.

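Where inhibition never reached the appropriate level, the endpoint shown equals the highest concentration tested. Otherwise, values were interpolated linearly from a five-concentration, 48-hour dose response in 96-well plates. The concentration for 50% growth inhibition is given as GI50. TGI is the concentration that stops growth completely.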

Test systems include SF-295 CNS; OVCAR-3 ovarian; 786-0 renal; MOLT-4 leukemia; ACHN renal; HL-60(TB) leukemia; HOP-92 NSCLC; OVCAR-8 ovarian; SF-268 CNS.
Common to all, as to test: NCI tumour cell line growth inhibition, 48 h

With `COc1cc2c(cc1OC)-c1ncc3cc(OC)c(OC)cc3c1C2`, the GI50 was more than 50 µM in the test with SF-295 CNS; more than 50 µM in the test on OVCAR-3 ovarian; more than 50 µM in the test on 786-0 renal; 25.4 µM in the test with MOLT-4 leukemia; more than 50 µM with ACHN renal; 16.2 µM in the test on HL-60(TB) leukemia. Besides, the GI50 in the test on HOP-92 NSCLC and in the test on OVCAR-8 ovarian was more than 50 µM in each case. Also, the TGI with SF-295 CNS, in the test with OVCAR-3 ovarian, in the test with 786-0 renal, with MOLT-4 leukemia, in the test on ACHN renal and in the test with HL-60(TB) leukemia was more than 50 µM in each case. Besides, the TGI in the test with HOP-92 NSCLC and in the test on OVCAR-8 ovarian was more than 50 µM in each case.

Take `COC(=O)[C@H](Cc1cn(C)cn1)NC(=O)[C@@H](NC(=O)Nc1cc(C(F)(F)F)cc(C(F)(F)F)c1)C(C)(C)C`: the GI50 with SF-295 CNS, in the test with SF-268 CNS, in the test on OVCAR-3 ovarian, in the test with 786-0 renal, in the test with MOLT-4 leukemia and in the test on ACHN renal was more than 10 µM in each case. For the same molecule, the GI50 in the test with HL-60(TB) leukemia and in the test with OVCAR-8 ovarian was more than 10 µM in each case. Also, the TGI in the test with SF-295 CNS, in the test with SF-268 CNS, in the test on OVCAR-3 ovarian, in the test with 786-0 renal, in the test with MOLT-4 leukemia and in the test on ACHN renal was more than 10 µM each time. In addition, the TGI with HL-60(TB) leukemia and in the test on OVCAR-8 ovarian was more than 10 µM each time.

On to `Cc1nc2ccccc2c(/C=C/c2ccccc2)c1C(=O)/C=C/c1ccccc1`, for which the GI50 in the test on SF-295 CNS was 2.8 µM; in the test on SF-268 CNS it was 2.14 µM; in the test with 786-0 renal, 1.61 µM; with ACHN renal, 1.86 µM; in the test with HL-60(TB) leukemia, 2.45 µM; with OVCAR-8 ovarian, 2.11 µM. Besides, the TGI stood at 8.36 µM with SF-295 CNS; 6.24 µM in the test with SF-268 CNS; 3.02 µM in the test on 786-0 renal; 3.62 µM in the test on ACHN renal; 6.51 µM in the test on HL-60(TB) leukemia; 5.67 µM in the test with OVCAR-8 ovarian.

In the case of `CCOC(=O)NC(=O)c1cn(C2OC(COC(=O)CCCCCCCCC(=O)OCC3OC(n4cc(C(=O)NC(=O)OCC)c(=O)[nH]c4=O)C4OC(C)(C)OC34)C3OC(C)(C)OC32)c(=O)[nH]c1=O` (stereo not given), the TGI in the test with SF-295 CNS, with SF-268 CNS, in the test on OVCAR-3 ovarian, in the test with 786-0 renal, in the test with MOLT-4 leukemia and with ACHN renal was more than 100 µM throughout. The TGI in the test on HL-60(TB) leukemia, in the test on HOP-92 NSCLC and in the test with OVCAR-8 ovarian was more than 100 µM each time.

`Fc1ccc2c(c1)cc1ccc3cccc4ccc2c1c34`: the TGI in the test on SF-295 CNS, in the test on SF-268 CNS, with OVCAR-3 ovarian, with 786-0 renal, in the test on MOLT-4 leukemia and in the test on ACHN renal was more than 100 µM throughout. The TGI in the test on HL-60(TB) leukemia, in the test with HOP-92 NSCLC and with OVCAR-8 ovarian was more than 100 µM in each case.

For `COc1ccc2c(c1OC)C(C=C(c1ccccc1)c1ccccc1)CN(C)C2` (stereo not given), the TGI in the test on SF-295 CNS was 80.3 µM; with SF-268 CNS, 72.2 µM; in the test on OVCAR-3 ovarian, 59.9 µM; in the test with 786-0 renal it was 39.5 µM; in the test with MOLT-4 leukemia, 64.7 µM; in the test on ACHN renal, more than 100 µM. For the same molecule, the TGI in the test with HOP-92 NSCLC amounted to 40.1 µM; in the test on OVCAR-8 ovarian, 67 µM.

As to `CC(C)(C)C1CCC(=O)C(C(O)CC2CC(=O)N(c3ccccc3)C(=O)C2)C1` (stereo not given), the TGI in the test on SF-295 CNS, in the test with SF-268 CNS, in the test on OVCAR-3 ovarian, in the test with 786-0 renal, in the test with MOLT-4 leukemia and in the test with ACHN renal was more than 100 µM throughout. For the same molecule, the TGI in the test with HL-60(TB) leukemia, in the test on HOP-92 NSCLC and in the test with OVCAR-8 ovarian was more than 100 µM each time.

For the molecule `CCCCCN(CCCCC)C(=O)[C@H](CCC(=O)OCc1ccccc1)NC(=O)c1cc2ccccc2[nH]1`, the TGI with SF-295 CNS, in the test on SF-268 CNS, with OVCAR-3 ovarian, in the test on 786-0 renal, with MOLT-4 leukemia and with ACHN renal was more than 100 µM in each case. In addition, the TGI with HL-60(TB) leukemia, with HOP-92 NSCLC and in the test with OVCAR-8 ovarian was more than 100 µM throughout.

As for `O=C(COC(=O)c1cccc2c(=O)c3ccccc3[nH]c12)Nc1ccc(S(=O)(=O)Nc2ncccn2)cc1`, the TGI in the test on SF-295 CNS was more than 100 µM; in the test with SF-268 CNS, more than 100 µM; with OVCAR-3 ovarian it was 51.7 µM; with 786-0 renal it was more than 100 µM; in the test with MOLT-4 leukemia, 71 µM; with ACHN renal, more than 100 µM. The TGI with HL-60(TB) leukemia is 71.3 µM; in the test with HOP-92 NSCLC, 51 µM; in the test on OVCAR-8 ovarian it was more than 100 µM.

With `O=C(CC1SC(=Nc2ccccc2Cl)NC1=O)Nc1ccc(Cl)cc1` (stereo not given), the TGI in the test on SF-295 CNS, with SF-268 CNS, in the test on 786-0 renal, with ACHN renal and in the test with HL-60(TB) leukemia was more than 100 µM throughout.

For the molecule `[N-]=[N+]=NC1C2CC3CC(C2)CC1C3` (stereo not given), the TGI with SF-295 CNS, in the test with OVCAR-3 ovarian, with 786-0 renal, in the test on MOLT-4 leukemia, in the test with ACHN renal and in the test on HOP-92 NSCLC was more than 100 µM in each case. In the test on OVCAR-8 ovarian, this molecule came in with a TGI of more than 100 µM.

For `COc1cc2ccc3c4cc(OC)c(OC(C)C)cc4c[n+](C)c3c2cc1OC`, the TGI in the test with SF-295 CNS, in the test on SF-268 CNS, with OVCAR-3 ovarian, in the test on 786-0 renal, in the test on MOLT-4 leukemia and in the test on ACHN renal was more than 100 µM each time. The TGI in the test with HL-60(TB) leukemia, with HOP-92 NSCLC and in the test with OVCAR-8 ovarian was more than 100 µM in each case.

As to `CCC(C)(C)NS(=O)(=O)c1ccccc1`, the TGI with SF-295 CNS, in the test on OVCAR-3 ovarian, with 786-0 renal, in the test on MOLT-4 leukemia, in the test on ACHN renal and with HL-60(TB) leukemia was more than 100 µM each time. Besides, in the test with OVCAR-8 ovarian, the TGI is more than 100 µM.
